{
  "source": "patent US11352316B2",
  "about": "“Opioid receptor modulators and products and methods related thereto” (priority 2018, dated 2022)",
  "key": {"mu opioid receptor (MOR)": {"target": "T1, mu opioid receptor (MOR) (Homo sapiens, UniProt P35372)", "T1 construct": "host or cells: CHO-K1", "T1 sequence (P35372 whole entry)": "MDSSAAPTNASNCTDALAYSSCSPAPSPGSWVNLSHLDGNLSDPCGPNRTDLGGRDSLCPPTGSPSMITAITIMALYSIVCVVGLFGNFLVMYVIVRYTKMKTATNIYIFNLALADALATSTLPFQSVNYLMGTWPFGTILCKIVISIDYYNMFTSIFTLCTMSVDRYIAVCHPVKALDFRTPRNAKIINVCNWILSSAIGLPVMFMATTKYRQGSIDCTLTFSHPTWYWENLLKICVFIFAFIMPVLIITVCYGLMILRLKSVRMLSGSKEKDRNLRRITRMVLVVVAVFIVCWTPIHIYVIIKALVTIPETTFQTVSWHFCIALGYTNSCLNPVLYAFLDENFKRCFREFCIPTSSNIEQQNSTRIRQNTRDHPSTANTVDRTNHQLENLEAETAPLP", "experiment": "MOR GTPγS agonist assay (membranes, SPA beads)", "type": "biochemical", "settings": "membranes of CHO-K1 cells over-expressing MOR", "description": "Membranes obtained from the stable cell lines over-expressing MOR were subjected to GTPγS assay using SPA beads (Perkin Elmer, Cat #RPNQ0001)."}, "Male Sprague-Dawley rats": {"system": "Male Sprague-Dawley rats", "experiment": "Hot plate assay", "type": "in vivo", "settings": "rat, SC", "protocol": "Male Sprague-Dawley rats weighing 275-300 grams were used in the study, n=8-10 per group. Animals are injected SC with 0.9% normal saline solution. At 15, 45, and 80 min after the injection, animals were placed onto a hotplate set to 52 degrees centigrade, and baseline latency is recorded (baseline latency=average time to 2nd withdrawal response consisting of either a lick of a rear paw, shaking a rear paw, backwards walking or jumping). A day later animals were injected SC with test compounds either in vehicle solution, or with a mix of compounds in solution. Next the test latency was recorded (test latency=time to withdrawal on the hotplate measured at 15, 45, 80, 120, 180 and 240 min using the procedure described). Times were then converted to % maximum possible effect (% MPE)=(test_latecy−baseline_latency)/(30 sec−baseline_latency); where 30 sec is the cutoff where the animal is removed if no response ifs observed as it is the time point at which injury is expected to occur."}},
  "data": [
    {"smiles": "CNC(=O)c1ccc(C[C@@H](CNC(=O)c2ccc(Cl)cc2Cl)N(C)C)cc1F", "note": "[Compound C-37, (S)-2,4-dichloro-N-(2-(dimethylamino)-3-(3-fluoro-4-(methylcarbamoyl)phenyl)propyl) benzamide]", "values": [
      {"measurement": "EC50", "setting": "mu opioid receptor (MOR)", "value": "< 0.1", "unit": "µM"}
    ]},
    {"smiles": "CNC(=O)c1cc(C)c(C[C@@H](CNC(=O)c2ccccc2OC)N(C)C)c(C)c1", "note": "[Compound C-68, (S)-4-(2-(dimethylamino)-3-(2-methoxybenzamido)propyl)-N,3,5-trimethylbenzamide]", "values": [
      {"measurement": "EC50", "setting": "mu opioid receptor (MOR)", "value": "< 0.1", "unit": "µM"}
    ]},
    {"smiles": "CN(C)[C@H](CNC(=O)[C@@H]1C[C@]1(C)c1ccccc1)Cc1ccc(O)cc1Cl", "note": "[Compound B-15, (1R,2S)—N—((S)-3-(2-chloro-4-hydroxyphenyl)-2-(dimethylamino)propyl)-2-methyl-2-phenylcyclopropane-1-carboxamide]", "values": [
      {"measurement": "effect on the analgesic activity of agonist Compound B-56 in the hotplate test", "setting": "Male Sprague-Dawley rats; co-dosed with Compound B-56, FIG. 1", "value": "blocks in vivo the analgesic activity of the agonist Compound B-56"},
      {"measurement": "effect on its own in the hotplate test", "setting": "Male Sprague-Dawley rats; dosed alone, FIG. 1", "value": "no effect on its own"}
    ]},
    {"smiles": "Cc1cc(O)ccc1C[C@@H](CNC(=O)[C@@H]1C[C@@]1(C)c1ccccc1)N(C)C", "note": "[Compound B-56, (1R,2R)—N—((S)-2-(dimethylamino)-3-(4-hydroxy-2-methylphenyl)propyl)-2-methyl-2-phenylcyclopropane-1-carboxamide]", "values": [
      {"measurement": "analgesic activity in the hotplate test (time to withdrawal response, % MPE)", "setting": "Male Sprague-Dawley rats; hotplate 52 degrees centigrade, FIG. 1", "value": "analgesic"}
    ]}
  ]
}
